assay: Screening of beta-hydroxy carboxylate analogs for CEST contrast (Table 4A); conditions: Concentration 5 mM

Row | Structure (SMILES) | Signal (ppm)
1 | Cc1ccc(Cl)c(Nc2ccccc2C(=O)O)c1Cl [Entry 51] | 4.8 ppm
2 | Cc1cccc(Nc2ccccc2C(=O)O)c1C [Entry 52] | None
3 | Cc1cccc(Nc2ccccc2C(=O)O)c1Cl [Entry 53] | None

same assay, conditions: Concentration 10 mM

Row | Structure (SMILES) | Signal (ppm) | kex
4 | O=C(O)c1ccccc1O [Entry 1] | 9.3 ppm | 400 s⁻¹
5 | O=C(O)CNC(=O)c1ccccc1O [Entry 3] | None | 
6 | COC(=O)c1ccccc1O [Entry 4] | None | 
7 | COC(=O)c1cc([N+](=O)[O-])ccc1O [Entry 5] | None | 
8 | O=[N+]([O-])c1ccccc1O [Entry 6] | None | 
9 | COC(=O)c1ccc(O)c([N+](=O)[O-])c1 [Entry 7] | None | 
10 | [O-][n+]1cccc2cccc(O)c21 [Entry 8] | 9.5 ppm | 32 s⁻¹
11 | O=Cc1cc(C(=O)O)ccc1O [Entry 9] | None | 
12 | O/N=C/c1ccccc1O [Entry 10] | None | 
13 | O=C(O)c1ccc(O)c(/C=N/CC/N=C/c2cc(C(=O)O)ccc2O)c1 [Entry 11] | 7.8 ppm | 15400 s⁻¹
14 | Oc1ccccc1-c1nnn[nH]1 [Entry 13] | None | 
15 | NC(Cc1cc(I)c(O)c(I)c1)C(=O)O (stereo not drawn) [Entry 14] | None | 
16 | O=C(O)c1cc(O)ccc1O [Entry 15] | 8.5 ppm | 400 s⁻¹
17 | Nc1ccc(O)c(C(=O)O)c1 [Entry 16] | 8.5 ppm | 380 s⁻¹
18 | O=C(O)c1cc(Cl)ccc1O [Entry 17] | 9.0 ppm | 290 s⁻¹
19 | O=C(O)c1cc([N+](=O)[O-])ccc1O [Entry 19] | 10.3 ppm | 5660 s⁻¹
20 | O=C(O)c1cc([N+](=O)[O-])cc([N+](=O)[O-])c1O [Entry 20] | None | 
21 | O=C(O)c1ccc(O)cc1O [Entry 21] | 9.5 ppm | 462 s⁻¹
22 | Nc1ccc(C(=O)O)c(O)c1 [Entry 22] | 9.5 ppm | 384 s⁻¹
23 | O=C(O)c1ccc(C(=O)O)c(O)c1 [Entry 23] | 9.3 ppm | 420 s⁻¹
24 | O=C(O)c1ccc([N+](=O)[O-])cc1O [Entry 24] | 9.5 ppm | 1500 s⁻¹
25 | O=C(O)c1c(O)ccc2ccccc12 [Entry 25] | 9.5 ppm | 4400 s⁻¹
26 | COc1cccc(O)c1C(=O)O [Entry 26] | 9.0 ppm | 4900 s⁻¹
27 | O=C(O)c1c(O)cccc1O [Entry 27] | 9.3 ppm | 30 s⁻¹

Row | Structure (SMILES) | Signal (ppm) | kex
28 | Cc1cccc(C(=O)O)c1O [Entry 28] | 9.5 ppm | 250 s⁻¹
29 | O=C(O)c1cccc(F)c1O [Entry 30] | 9.5 ppm | 750 s⁻¹
30 | O=C(O)c1cc(Cl)cc(Cl)c1O [Entry 31] | 10.3 ppm | 1070 s⁻¹
31 | O=C(O)c1cc(Br)cc(Br)c1O [Entry 32] | 10.5 ppm | 580 s⁻¹
32 | O=C(O)c1cc(I)cc(I)c1O [Entry 33] | 10.8 ppm | 310 s⁻¹
33 | O=C(O)c1ccc2ccccc2c1O [Entry 34] | 10.5 ppm | 220 s⁻¹
34 | O=C(O)c1ccc2cccnc2c1O [Entry 35] | 10.3 ppm | 1530 s⁻¹
35 | O=C(O)c1cccc(O)c1O [Entry 36] | 9.0 ppm | 2000 s⁻¹
36 | COc1cccc(C(=O)O)c1O [Entry 37] | 9.3 ppm | 480 s⁻¹
37 | Nc1cccc(C(=O)O)c1O [Entry 38] | 9.0 ppm | 410 s⁻¹
38 | O=Cc1cccc(C(=O)O)c1O [Entry 39] | 10.5 ppm | 510 s⁻¹
39 | O=C(O)c1cccc(C(=O)O)c1O [Entry 40] | 9.5 ppm | 6680 s⁻¹
40 | O=C(O)c1cccc([N+](=O)[O-])c1O [Entry 41] | 12.0 ppm | 1430 s⁻¹
41 | O=C(O)c1cc(O)c(C(=O)O)cc1O [Entry 42] | 8.3 ppm | 990 s⁻¹
42 | O=C(O)c1cc(C(=O)O)c(O)cc1O [Entry 43] | 9.8 ppm | 460 s⁻¹
43 | O=C(O)c1cc2ccccc2c(Cc2c(O)c(C(=O)O)cc3ccccc23)c1O [Entry 44] | 9.5 ppm | 130 s⁻¹
44 | O=C(O)c1ccccc1Nc1ccccc1 [Entry 49] | 4.8 ppm | 674 s⁻¹
45 | O=C(O)c1ccccc1Nc1cccc(C(F)(F)F)c1 [Entry 50] | 4.8 ppm | 1000 s⁻¹
46 | O=C(O)c1cccnc1Nc1cccc(C(F)(F)F)c1 [Entry 54] | None | 
47 | O=C(O)c1ccccc1NC(=O)C(F)(F)F [Entry 57] | 9.3 ppm | 190 s⁻¹
48 | CS(=O)(=O)Nc1ccccc1C(=O)O [Entry 58] | 7.3 ppm | 470 s⁻¹
49 | CS(=O)(=O)Nc1ccc(N)cc1C(=O)O [Entry 61] | 6.3 ppm | 550 s⁻¹
50 | Cc1ccc(S(=O)(=O)Nc2ccccc2C(=O)O)cc1 [Entry 62] | 7.8 ppm | 440 s⁻¹

same assay, conditions: Concentration 20 mM

Row | Structure (SMILES) | Signal (ppm) | kex
51 | CC(C)(C)c1cc(C(=O)O)c(O)c(C(C)(C)C)c1 [Entry 29] | 9.3 ppm | 22 s⁻¹

same assay, conditions: Concentration 25 mM

Row | Structure (SMILES) | Signal (ppm) | kex
52 | O=C(O)c1ccc(-c2ccc(F)cc2F)cc1O [Entry 45] | 9.3 ppm | 650 s⁻¹
53 | O=C(O)c1cc(/N=N\c2ccc(S(=O)(=O)Nc3ccccn3)cc2)ccc1O [Entry 46] | 9.6 ppm | 1000 s⁻¹
54 | Nc1ccccc1C(=O)O [Entry 47] | None | 
55 | CNc1ccccc1C(=O)O [Entry 48] | None | 
56 | CC(=O)Nc1ccccc1C(=O)O [Entry 55] | None | 
57 | CC(C)(C)OC(=O)Nc1ccccc1C(=O)O [Entry 56] | None | 
58 | CS(=O)(=O)Nc1ccc(Cl)cc1C(=O)O [Entry 59] | 7.3 ppm | 1000 s⁻¹
59 | Cc1ccc(NS(C)(=O)=O)c(C(=O)O)c1 [Entry 60] | 7.0 ppm | 500 s⁻¹
60 | O=C(O)c1ccccc1NS(=O)(=O)C(F)(F)F [Entry 63] | None | 
61 | O=C(O)c1ccccc1N/N=C\c1ccccc1 [Entry 64] | None | 

assay: not given; conditions: Table 2; 10 mM, pH 7.3-7.4, 37° C.

Row | Structure (SMILES) | kex
62 | O=C(O)c1ccc(O)cc1O [Compound 16] | 460 s⁻¹
63 | Nc1ccc(C(=O)O)c(O)c1 [Compound 17] | 384 s⁻¹
64 | O=C(O)c1ccc(C(=O)O)c(O)c1 [Compound 18] | 420 s⁻¹
65 | O=C(O)c1ccc([N+](=O)[O-])cc1O [Compound 19, 2-hydroxy-4-nitrobenzoic acid] | 1500 s⁻¹

same assay, conditions: Table 3; 10 mM, pH 7.3-7.4, 37° C.

Row | Structure (SMILES) | kex
66 | O=C(O)c1c(O)ccc2ccccc12 [Compound 20, 2-hydroxy-l-naphthoic acid] | 4400 s⁻¹
67 | COc1cccc(O)c1C(=O)O [Compound 21, 6-methoxysalicylic acid] | 4900 s⁻¹
68 | O=C(O)c1c(O)cccc1O [Compound 22, 2,6-dihydroxybenzoic acid] | 30 s⁻¹

same assay, conditions: Table 4; 10 mM, pH 7.3-7.4, 37° C.

Row | Structure (SMILES) | kex
69 | Cc1cccc(C(=O)O)c1O [Compound 23, 3-Methylsalicylic acid] | 250 s⁻¹
70 | CC(C)(C)c1cc(C(=O)O)c(O)c(C(C)(C)C)c1 [Compound 24, 3,5-di-tert-butylsalicylic acid] | 22 s⁻¹
71 | O=C(O)c1cccc(F)c1O [Compound 25] | 750 s⁻¹
72 | O=C(O)c1cc(Cl)cc(Cl)c1O [Compound 26] | 1070 s⁻¹
73 | O=C(O)c1cc(Br)cc(Br)c1O [Compound 27, 3,5-Dibromosalicylic acid] | 580 s⁻¹
74 | O=C(O)c1cc(I)cc(I)c1O [Compound 28] | 310 s⁻¹
75 | O=C(O)c1ccc2ccccc2c1O [Compound 29, 1-Hydroxy-2-naphthoic acid] | 220 s⁻¹
76 | COc1cccc(C(=O)O)c1O [Compound 32, 3-methoxysalicylic acid] | 480 s⁻¹

assay: not given; assay type: physicochemical; conditions: Table 2; 10 mM, pH 7.3-7.4, tsat = 3 sec, ω1 = 3.6 μT, 37° C.

Row | Structure (SMILES) | Signal (ppm)
77 | O=C(O)c1cc([N+](=O)[O-])ccc1O [Compound 14, 5-nitrosalicylic acid] | 10.3 ppm
78 | O=C(O)c1cc([N+](=O)[O-])cc([N+](=O)[O-])c1O [Compound 15, 3,5-Dinitrosalicylic acid] | None
79 | O=C(O)c1ccc(O)cc1O [Compound 16] | 9.5 ppm
80 | Nc1ccc(C(=O)O)c(O)c1 [Compound 17] | 9.5 ppm
81 | O=C(O)c1ccc(C(=O)O)c(O)c1 [Compound 18] | 9.3 ppm
82 | O=C(O)c1ccc([N+](=O)[O-])cc1O [Compound 19, 2-hydroxy-4-nitrobenzoic acid] | 9.5 ppm

same assay, conditions: Table 3; 10 mM, pH 7.3-7.4, tsat = 3 sec, ω1 = 3.6 μT, 37° C.

Row | Structure (SMILES) | Signal (ppm)
83 | O=C(O)c1c(O)ccc2ccccc12 [Compound 20, 2-hydroxy-l-naphthoic acid] | 9.5 ppm
84 | COc1cccc(O)c1C(=O)O [Compound 21, 6-methoxysalicylic acid] | 9.0 ppm
85 | O=C(O)c1c(O)cccc1O [Compound 22, 2,6-dihydroxybenzoic acid] | 9.3 ppm

same assay, conditions: Table 4; 10 mM, pH 7.3-7.4, tsat = 3 sec, ω1 = 3.6 μT, 37° C.

Row | Structure (SMILES) | Signal (ppm)
86 | Cc1cccc(C(=O)O)c1O [Compound 23, 3-Methylsalicylic acid] | 9.5 ppm
87 | CC(C)(C)c1cc(C(=O)O)c(O)c(C(C)(C)C)c1 [Compound 24, 3,5-di-tert-butylsalicylic acid] | 9.3 ppm
88 | O=C(O)c1cccc(F)c1O [Compound 25] | 9.5 ppm
89 | O=C(O)c1cc(Cl)cc(Cl)c1O [Compound 26] | 10.3 ppm
90 | O=C(O)c1cc(Br)cc(Br)c1O [Compound 27, 3,5-Dibromosalicylic acid] | 10.5 ppm
91 | O=C(O)c1cc(I)cc(I)c1O [Compound 28] | 10.8 ppm
92 | O=C(O)c1ccc2ccccc2c1O [Compound 29, 1-Hydroxy-2-naphthoic acid] | 10.5 ppm
93 | O=C(O)c1ccc2cccnc2c1O [Compound 30, 8-hydroxy-7-quinolinecarboxylic acid] | 10.3 ppm
94 | O=C(O)c1cccc(O)c1O [Compound 31, 2,3-dihydroxybenzoic acid] | 9.0 ppm
95 | COc1cccc(C(=O)O)c1O [Compound 32, 3-methoxysalicylic acid] | 9.3 ppm
96 | O=C(O)c1cccc(C(=O)O)c1O [Compound 35, 2-hydroxyisophthalic acid] | 9.5 ppm
97 | O=C(O)c1cccc([N+](=O)[O-])c1O [Compound 36, 3-nitrosalicylic acid] | 12.0 ppm
